{
  "source": "patent US11639353B2",
  "about": "“Cyclobutanes- and azetidine-containing mono and spirocyclic compounds as αV integrin inhibitors” (BRISTOL-MYERS SQUIBB COMPANY, priority 2016, dated 2023)",
  "data": [
    {"molecular_target": "T1, human αVβ6 (Homo sapiens, UniProt P06756+P18564)", "T1 construct": "purchased R & D systems 3817-AV", "T1 sequence (P06756 31-992 limits assumed)": "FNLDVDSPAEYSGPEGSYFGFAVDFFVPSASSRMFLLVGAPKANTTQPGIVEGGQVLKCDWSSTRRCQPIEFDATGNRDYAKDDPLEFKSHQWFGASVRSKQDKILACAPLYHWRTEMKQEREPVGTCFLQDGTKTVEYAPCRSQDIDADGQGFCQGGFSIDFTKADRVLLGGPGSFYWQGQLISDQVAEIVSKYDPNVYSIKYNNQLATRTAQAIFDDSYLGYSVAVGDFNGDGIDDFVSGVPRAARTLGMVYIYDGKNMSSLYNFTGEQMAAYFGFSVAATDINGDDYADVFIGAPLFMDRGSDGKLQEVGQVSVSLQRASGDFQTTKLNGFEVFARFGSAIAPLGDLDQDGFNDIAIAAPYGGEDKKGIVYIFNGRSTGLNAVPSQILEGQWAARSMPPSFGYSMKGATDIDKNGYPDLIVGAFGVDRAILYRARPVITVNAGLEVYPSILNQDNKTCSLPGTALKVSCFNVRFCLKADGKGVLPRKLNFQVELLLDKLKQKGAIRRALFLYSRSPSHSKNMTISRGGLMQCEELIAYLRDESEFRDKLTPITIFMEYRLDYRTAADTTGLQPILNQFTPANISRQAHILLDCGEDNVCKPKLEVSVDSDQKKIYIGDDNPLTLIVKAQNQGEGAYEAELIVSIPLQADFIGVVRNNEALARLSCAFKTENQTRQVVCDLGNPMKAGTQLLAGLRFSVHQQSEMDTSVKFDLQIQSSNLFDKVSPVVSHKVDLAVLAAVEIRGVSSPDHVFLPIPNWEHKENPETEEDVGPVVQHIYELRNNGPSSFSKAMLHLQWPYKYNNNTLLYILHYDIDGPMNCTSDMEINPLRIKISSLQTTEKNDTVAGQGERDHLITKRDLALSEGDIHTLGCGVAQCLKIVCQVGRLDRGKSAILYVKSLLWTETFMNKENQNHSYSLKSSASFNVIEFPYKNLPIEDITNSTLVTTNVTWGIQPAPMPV", "T1 sequence (P18564 22-707 limits assumed)": "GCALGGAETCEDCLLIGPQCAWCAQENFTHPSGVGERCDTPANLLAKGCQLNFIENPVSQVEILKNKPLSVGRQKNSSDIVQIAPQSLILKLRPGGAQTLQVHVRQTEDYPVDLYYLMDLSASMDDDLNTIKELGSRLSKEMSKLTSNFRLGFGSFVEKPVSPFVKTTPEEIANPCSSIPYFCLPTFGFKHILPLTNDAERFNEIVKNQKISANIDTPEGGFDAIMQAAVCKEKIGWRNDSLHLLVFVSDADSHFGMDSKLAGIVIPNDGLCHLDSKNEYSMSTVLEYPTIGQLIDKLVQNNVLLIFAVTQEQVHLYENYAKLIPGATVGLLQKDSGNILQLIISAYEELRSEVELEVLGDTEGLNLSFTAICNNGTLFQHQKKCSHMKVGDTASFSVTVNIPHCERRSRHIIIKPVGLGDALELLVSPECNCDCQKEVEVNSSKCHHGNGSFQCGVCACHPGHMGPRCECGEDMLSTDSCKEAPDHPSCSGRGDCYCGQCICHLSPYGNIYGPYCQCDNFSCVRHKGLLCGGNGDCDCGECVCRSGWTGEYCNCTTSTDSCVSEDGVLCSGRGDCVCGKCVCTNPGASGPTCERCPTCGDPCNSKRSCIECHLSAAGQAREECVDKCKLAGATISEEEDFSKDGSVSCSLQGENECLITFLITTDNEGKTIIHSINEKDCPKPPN", "experiment": "human αVβ6 HTRF binding assay", "details": "alternatively SPA-based assay", "protocol": "All binding assays used the HTRF (homogeneous time resolved fluorescence) technology from Cisbio International, therefore all assays are described as HTRF binding assays. The assay results for the Examples are listed above together with the characterization data. The HTRF binding assays are established for the following integrins: human αVβ6, human αVβ1, human αVβ3, human αVβ5, and human αVβ8. All assays used the following assay buffer: 20 mM Tris, pH 7.4, 1 mM MgCl2, 1 mM MnCl2, 0.01% Tween 20, and 0.01% BSA. Alternatively, a SPA-based assay was used for evaluation of receptor binding.\nThe following describes the components and a representative procedure for the human αVβ6 HTRF binding assay: Recombinant human αVβ6 Integrin (R & D systems, 3817-AV) was biotinylated. Biotinylated human αVβ6 Integrin was added to assay vessel at a final concentration of 1.25 nM. FITC-conjugated fibronectin (Cytoskeleton, FNR02) was then added at the final concentration of 5 nM. The mixture was centrifuged at 600 rpm for three minutes using Thermo Fisher Heraeus Multifuge X3 centrifuge and then incubated at RT for an hour. Streptavidin Terbium (Cisbio international 610STLB) was then added at the final concentration of 0.625 nM. The resulting mixture was centrifuged at 600 rpm for three minutes using Thermo Fisher Heraeus Multifuge X3 centrifuge and then incubated at room temperature overnight in dark before reading HTRF signals.\nThe SPA-based assay was carried out according to the protocol and procedures similar to the ones described in the following reference with appropriate modifications to agents and ligands which are readily understood by one skilled in the art: Pachter J A, Zhang R, Mayer-Ezell R., “Scintillation proximity assay to measure binding of soluble fibronectin to antibody-captured αVβ1 integrin” Anal Biochem. 1995 Sep. 1; 230(1):101-7.", "units": {"IC50": "nM"}, "values": [
      {"compound": "COC(=O)N(C1CC2(C1)CN(CCc1ccc3c(n1)NCCC3)C2)[C@@H](CC(=O)O)c1cc(Cl)cc(Cl)c1", "note": "[Example 19, (S)-3-(3,5-Dichlorophenyl)-3-((methoxycarbonyl)(2-(2-(5,6,7,8-tetrahydro-1,8-naphthyridin-2-yl)ethyl)-2-azaspiro[3.3]heptan-6-yl)amino)propanoic acid]", "IC50": 84.5},
      {"compound": "CN(C1CC2(C1)CN(CCc1ccc3c(n1)NCCC3)C2)[C@@H](CC(=O)O)c1cc(Cl)cc(Cl)c1", "note": "[Example 20, (S)-3-(3,5-Dichlorophenyl)-3-(methyl(2-(2-(5,6,7,8-tetrahydro-1,8-naphthyridin-2-yl)ethyl)-2-azaspiro[3.3]heptan-6-yl)amino)propanoic acid]", "IC50": 16},
      {"compound": "CC(=O)N(C1CN(CCCc2ccc3c(n2)NCCC3)C1)[C@@H](CC(=O)O)c1cc(Cl)cc(Cl)c1", "note": "[Example 21, (S)-3-(3,5-Dichlorophenyl)-3-(N-(1-(3-(5,6,7,8-tetrahydro-1,8-naphthyridin-2-yl)propyl)azetidin-3-yl)acetamido)propanoic acid]", "IC50": 9.8},
      {"compound": "COc1ccc(C(CC(=O)O)C2(F)CN(CCCCc3ccc4c(n3)NCCC4)C2)cc1F", "note": "(stereo not drawn) [Example 22, 3-(3-Fluoro-1-(4-(5,6,7,8-tetrahydro-1,8-naphthyridin-2-yl)butyl)azetidin-3-yl)-3-(3-fluoro-4-methoxyphenyl)propanoic acid]", "IC50": 3.8},
      {"compound": "COc1ccc(CN(CCC(=O)O)C2CN(CCCc3ccc4c(n3)NCCC4)C2)cn1", "note": "[Example 23, 3-(((6-Methoxypyridin-3-yl)methyl)(1-(3-(5,6,7,8-tetrahydro-1,8-naphthyridin-2-yl)propyl)azetidin-3-yl)amino)propanoic acid]", "IC50": 2.8},
      {"compound": "COC(Cc1ccc2c(n1)NCCC2)C1CN(C(=O)C[C@H](NC(=O)OCc2ccccc2)C(=O)O)C1", "note": "(stereo partly drawn) [Example 24, (2S)-2-(((Benzyloxy)carbonyl)amino)-4-(3-(1-methoxy-2-(5,6,7,8-tetrahydro-1,8-naphthyridin-2-yl)ethyl)azetidin-1-yl)-4-oxobutanoic acid]", "IC50": 490},
      {"compound": "COc1ccc([C@H](CC(=O)O)NC(=O)C2CC(C(Cc3ccc4c(n3)NCCC4)NS(=O)(=O)c3ccc(C)cc3)C2)cc1F", "note": "(stereo partly drawn) [Example 25, (3S)-3-(3-Fluoro-4-methoxyphenyl)-3-(3-(1-(4-methylphenylsulfonamido)-2-(5,6,7,8-tetrahydro-1,8-naphthyridin-2-yl)ethyl)cyclobutanecarboxamido)propanoic acid]", "IC50": 3},
      {"compound": "Cc1cc(C)c(S(=O)(=O)N[C@@H](CNC(=O)C2CC3(CC(NC(=O)CCc4ccc5c(n4)NCCC5)C3)C2)C(=O)O)c(C)c1", "note": "(stereo partly drawn) [Example 28]", "IC50": 380},
      {"compound": "O=C(O)C[C@H](NC(=O)C1CC2(CC(NC(=O)CCc3ccc4c(n3)NCCC4)C2)C1)c1cc(Cl)cc(Cl)c1", "note": "(stereo partly drawn) [Example 29]", "IC50": 2000},
      {"compound": "O=C(O)C[C@H](NC(=O)C1CC2(CC(NC(=O)CCc3ccc4c(n3)NCCC4)C2)C1)c1cc(Cl)cc(Cl)c1", "note": "(stereo partly drawn) [Example 30]", "IC50": 3300},
      {"compound": "CCOC(=O)C[C@H](NC(=O)C1CC2(C1)CN(CCc1ccc3c(n1)NCCC3)C2)c1ccc(OC)c(F)c1", "note": "[Example 31]", "IC50": 230},
      {"compound": "COc1ccc([C@H](CC(=O)O)NC(=O)C2CC3(C2)CN(CCCc2ccc4c(n2)NCCC4)C3)cn1", "note": "[Example 32]", "IC50": 130},
      {"compound": "O=C(O)C[C@H](NC(=O)C1CC2(C1)CN(CCc1ccc3c(n1)NCCC3)C2)c1cc(Cl)cc(Cl)c1", "note": "[Example 33]", "IC50": 2.7},
      {"compound": "CC(C)(C)c1cc(Br)cc([C@H](CC(=O)O)NC(=O)C2CC3(C2)CN(CCc2ccc4c(n2)NCCC4)C3)c1", "note": "[Example 34]", "IC50": 2},
      {"compound": "Cc1cc(C)c(S(=O)(=O)N[C@@H](CNC(=O)C2CC3(C2)CN(CCc2ccc4c(n2)NCCC4)C3)C(=O)O)c(C)c1", "note": "[Example 35]", "IC50": 2.7},
      {"compound": "COc1ccc([C@H](CC(=O)O)NC(=O)C2CN(CCc3ccc4c(n3)NCCC4)C2)cn1", "note": "[Example 37]", "IC50": 1},
      {"compound": "O=C(O)C[C@H](NC(=O)C1CN(CCc2ccc3c(n2)NCCC3)C1)c1cc(Cl)cc(Cl)c1", "note": "[Example 38]", "IC50": 0.8},
      {"compound": "COc1ccc([C@H](CC(=O)O)NC(=O)C2CC3(C2)CN(CCc2ccc4c(n2)NCCC4)C3)cc1F", "note": "[Example 39]", "IC50": 8.4},
      {"compound": "COc1ccc([C@H](CC(=O)O)NC(=O)C2CN(CCCc3ccc4c(n3)NCCC4)C2)cn1", "note": "[Example 40]", "IC50": 1.6},
      {"compound": "O=C(N[C@@H](CNC(=O)C1CC2(C1)CN(CCc1ccc3c(n1)NCCC3)C2)C(=O)O)OCc1ccccc1", "note": "[Example 41]", "IC50": 9.3},
      {"compound": "COc1ccc([C@H](CC(=O)O)NC(=O)C2CN(CCc3ccc4c(n3)NCCC4)C2)cc1F", "note": "[Example 42]", "IC50": 0.4},
      {"compound": "O=C(N[C@@H](CNC(=O)C1CN(CCc2ccc3c(n2)NCCC3)C1)C(=O)O)OCc1ccccc1", "note": "[Example 43]", "IC50": 0.4},
      {"compound": "COc1ccc([C@H](CC(=O)O)NC(=O)C2(F)CN(CCc3ccc4c(n3)NCCC4)C2)cc1F", "note": "[Example 44]", "IC50": 0.6},
      {"compound": "COc1ccc([C@H](CC(=O)O)NC(=O)C2(F)CN(CCc3ccc4c(n3)NCCC4)C2)cn1", "note": "[Example 46]", "IC50": 0.6},
      {"compound": "CCOC(=O)[C@H](CNC(=O)C1CC2(C1)CN(CCc1ccc3c(n1)NCCC3)C2)NS(=O)(=O)c1c(C)cc(C)cc1C", "note": "[Example 47]", "IC50": 160},
      {"compound": "CCOC(=O)C[C@H](NC(=O)C1CN(CCc2ccc3c(n2)NCCC3)C1)c1ccc(OC)nc1", "note": "[Example 48]", "IC50": 400},
      {"compound": "CCOC(=O)C[C@H](NC(=O)C1CC2(C1)CN(CCc1ccc3c(n1)NCCC3)C2)c1cc(Cl)cc(Cl)c1", "note": "[Example 49]", "IC50": 480},
      {"compound": "COc1ccc([C@H](CC(=O)O)NC(=O)[C@H]2C[C@@H](CCc3ccc4c(n3)NCCC4)C2)cc1F", "note": "[Example 54]", "IC50": 0.5},
      {"compound": "N[C@@H](CNC(=O)C1CN(CCc2ccc3c(n2)NCCC3)C1)C(=O)O", "note": "[Example 55]", "IC50": 20},
      {"compound": "COc1ccc([C@H](CC(=O)O)NC(=O)C2CC(CCC3CCc4cccnc4N3)C2)cn1", "note": "(stereo partly drawn) [Example 57]", "IC50": 0.94},
      {"compound": "COc1ccc([C@H](CC(=O)O)NC(=O)[C@H]2C[C@@H](CCc3ccc4c(n3)NCCC4)C2)cn1", "note": "[Example 60]", "IC50": 1},
      {"compound": "O=C(N[C@@H](CC(=O)N1CC2(CC(CCc3ccc4c(n3)NCCC4)C2)C1)C(=O)O)OCc1ccccc1", "note": "[Example 61]", "IC50": 20},
      {"compound": "O=C(C[C@H](NC(=O)OCc1ccccc1)C(=O)O)NC1CC(CCc2ccc3c(n2)NCCC3)C1", "note": "(stereo partly drawn) [Example 64]", "IC50": 4},
      {"compound": "COc1ccc(C(CC(=O)O)CC(=O)N2CC(CCc3ccc4c(n3)NCCC4)C2)cc1F", "note": "(stereo not drawn) [Example 67]", "IC50": 7.1},
      {"compound": "COc1ccc([C@H](CC(=O)O)N2CC(CCCCc3ccc4c(n3)NCCC4)C2=O)cn1", "note": "(stereo partly drawn) [Example 68]", "IC50": 2.4},
      {"compound": "COc1ncc([C@H](CC(=O)O)N2CC(CCCCc3ccc4c(n3)NCCC4)C2=O)cn1", "note": "(stereo partly drawn) [Example 70]", "IC50": 5.8},
      {"compound": "O=C(O)C[C@@H](c1cc(F)cc(F)c1)N1CC(CCCCc2ccc3c(n2)NCCC3)C1=O", "note": "(stereo partly drawn) [Example 71]", "IC50": 1.5},
      {"compound": "COc1ccc([C@H](CC(=O)O)NC2CN(CCCc3ccc4c(n3)NCCC4)C2)cc1F", "note": "[Example 72]", "IC50": 1.1},
      {"compound": "Cc1cc(C)c(S(=O)(=O)N[C@@H](CNC2CN(CCCc3ccc4c(n3)NCCC4)C2)C(=O)O)c(C)c1", "note": "[Example 73]", "IC50": 6.5},
      {"compound": "O=C(O)C[C@H](NC1CN(CCCc2ccc3c(n2)NCCC3)C1)c1cc(Cl)cc(Cl)c1", "note": "[Example 74]", "IC50": 0.5},
      {"compound": "COc1ccc([C@H](CC(=O)O)NC2CC3(C2)CN(CCc2ccc4c(n2)NCCC4)C3)cn1", "note": "[Example 75]", "IC50": 17},
      {"compound": "COc1ccc([C@H](CC(=O)O)NC(=O)N2CC(F)(CCc3ccc4c(n3)NCCC4)C2)cc1F", "note": "[Example 76]", "IC50": 0.96}
    ]}
  ]
}
